Tests used:
Format in all cases: cell-based, human
[1] = tested on: HCT-116 (colorectal cancer); experiment: Crystal Violet viability assay, HCT-116; design: key: absorbance at 570 nm (crystal violet), background wavelength subtracted; details: for Average CVE: HCT-116
Text: (§1) Three different viability assays were chosen to complement each other and yielded results dependent on concentration and cell line: the Methyl Tetrazolium dye assay, the Sulforhodamine B fluorescent dye assay, and the Crystal Violet dye assay.
(§2) The Sulforhodamine B and Crystal Violet assays provide information about protein and were used to complement the Methyl-Tetrazolium dye assay. […] It is used for the quantification of cellular proteins of cultured cells. The assay using Crystal Violet, a dye that binds electrostatically to proteins and stains DNA, provides a reliable, simple assay for measuring viability of cells.
(§3) The Methyl Tetrazolium, Sulforhodamine B, and Crystal Violet assays were used to assess cell viabilities. The incubation times were 24 hours, 48 hours, and 72 hours. The Nerium oleander extract Anvirzel™ (a hot water extract of oleander obtained from Salud Integral, Honduras) was tested in concentrations ranging from 0.01 ng/mL to 10 ng/mL.
(§4) Cells were detached by trypsinization (Trypsin-0.25% EDTA, Invitrogen, 25200-072) during the logarithmic phase of culture growth and plated in 96-well plates (18.000 cells/well) (Corning, Costar 359) in a final volume of 200 μl of medium per well. […] The absorbance was measured after 24 hours, 48 hours, and 72 hours of incubation.
(§5) For the Crystal Violet assay, the medium was removed from the 96-well plates, the plates rinsed with PBS (Sigma, P3813) and then the cells were […] by the addition of 10% formalin (MERCK, 1.04003.2500) for 20 minutes at RT. Formalin was removed and 0.25% aqueous crystal violet (Sigma, HT901), dissolved in water, was added for 10 minutes at RT. Unbound Crystal Violet was rinsed by washing with water and finally 33% acetic acid was added to dissolve the dye.
(§6) The optical density of each plate was measured on a μQuant spectrophotometer and the data were analyzed with Gen5 software (μQuant Biomolecular Spectrophotometer MQX200 and Gen5™ Microplate Data Collection & Analysis software, BioTek® Instruments. Inc, April 2008). Absorbance was measured at 570 nm for all assays and a second wavelength was measured in order to subtract noise. For the Methyl-Tetrazolium assay this second wavelength was 630 nm and for the Sulforhodamine B and Crystal Violet assays it was 690 nm.

[2] = tested on: COLO699N lung cancer cell line; experiment: Crystal Violet viability assay, COLO699N; design: key to CVE Average: absorbance at 570 nm (crystal violet), background wavelength subtracted; details: for Average CVE 24 h / Average CVE 48 h / Average CVE 72 h: COLO699N Run 1; for ABSORBANCE: COLO699N, 0.1 μg/mL cisplatin
Text: as §1, §2, §3, §4, §5, §6

[3] = tested on: COR-L 105 (non-small cell lung carcinoma); experiment: Crystal Violet viability assay, COR-L 105; design: key to CVE Average: absorbance at 570 nm (crystal violet), background wavelength subtracted; details: for CVE Average 24 h / CVE Average 48 h / CVE Average 72 h: COR-L 105, Run 3
Text: as §1, §2, §3, §4, §5, §6

## N.N.[Cl][Pt][Cl] [cisplatin]
[1]; HCT-116, Run 3, 24 h, 0.1 μg/ml CDDP
  CVE Average: 0.371
[1]; HCT-116, Run 3, 24 h, 1 μg/ml CDDP
  CVE Average: 0.267
[1]; HCT-116, Run 3, 24 h, 10 μg/ml CDDP
  CVE Average: 0.393
[1]; HCT-116, Run 3, 24 h, 100 μg/ml CDDP
  CVE Average: 0.256
[1]; HCT-116, Run 3, 48 h, 0.1 μg/ml CDDP
  CVE Average: 1.153
[1]; HCT-116, Run 3, 48 h, 1 μg/ml CDDP
  CVE Average: 0.687
[1]; HCT-116, Run 3, 48 h, 10 μg/ml CDDP
  CVE Average: 0.993
[1]; HCT-116, Run 3, 48 h, 100 μg/ml CDDP
  CVE Average: 0.359
[1]; HCT-116, Run 3, 72 h, 0.1 μg/ml CDDP
  CVE Average: 1.078
[1]; HCT-116, Run 3, 72 h, 1 μg/ml CDDP
  CVE Average: 0.235
[1]; HCT-116, Run 3, 72 h, 10 μg/ml CDDP
  CVE Average: 0.476
[1]; HCT-116, Run 3, 72 h, 100 μg/ml CDDP
  CVE Average: 0.214
[1]; Run 1, 24 h, 0.1 μg/ml CDDP
  Average CVE: 0.569
[1]; Run 1, 24 h, 1 μg/ml CDDP
  Average CVE: 0.563
[1]; Run 1, 24 h, 10 μg/ml CDDP
  Average CVE: 1.173
[1]; Run 1, 24 h, 100 μg/ml CDDP
  Average CVE: 0.344
[1]; Run 1, 48 h, 0.1 μg/ml CDDP
  Average CVE: 0.984
[1]; Run 1, 48 h, 1 μg/ml CDDP
  Average CVE: 0.624
[1]; Run 1, 48 h, 10 μg/ml CDDP
  Average CVE: 0.488
[1]; Run 1, 48 h, 100 μg/ml CDDP
  Average CVE: 0.356
[1]; Run 1, 72 h, 0.1 μg/ml CDDP
  Average CVE: 1.352
[1]; Run 1, 72 h, 1 μg/ml CDDP
  Average CVE: 0.308
[1]; Run 1, 72 h, 10 μg/ml CDDP
  Average CVE: 0.501
[1]; Run 1, 72 h, 100 μg/ml CDDP
  Average CVE: 0.51
[1]; Run 2, 24 h, 0.1 μg/ml CDDP
  Average CVE: 0.52
[1]; Run 2, 24 h, 1 μg/ml CDDP
  Average CVE: 0.302
[1]; Run 2, 24 h, 10 μg/ml CDDP
  Average CVE: 0.477
[1]; Run 2, 24 h, 100 μg/ml CDDP
  Average CVE: 0.303
[1]; Run 2, 48 h, 0.1 μg/ml CDDP
  Average CVE: 0.971
[1]; Run 2, 48 h, 1 μg/ml CDDP
  Average CVE: 0.425
[1]; Run 2, 48 h, 10 μg/ml CDDP
  Average CVE: 0.608
[1]; Run 2, 48 h, 100 μg/ml CDDP
  Average CVE: 0.529
[1]; Run 2, 72 h, 0.1 μg/ml CDDP
  Average CVE: 1.187
[1]; Run 2, 72 h, 1 μg/ml CDDP
  Average CVE: 0.551
[1]; Run 2, 72 h, 10 μg/ml CDDP
  Average CVE: 0.435
[1]; Run 2, 72 h, 100 μg/ml CDDP
  Average CVE: 0.492
[2]; 0.1 μg/ml CDDP
  Average CVE 24 h: 0.303
[2]; 0.1 μg/ml CDDP, 48 h
  Average CVE 48 h: 0.393
[2]; 0.1 μg/ml CDDP, 72 h
  Average CVE 72 h: 0.418
[2]; 1 μg/ml CDDP
  Average CVE 24 h: 0.222
[2]; 1 μg/ml CDDP, 48 h
  Average CVE 48 h: 0.136
[2]; 1 μg/ml CDDP, 72 h
  Average CVE 72 h: 0.313
[2]; 10 μg/ml CDDP
  Average CVE 24 h: 0.313
[2]; 10 μg/ml CDDP, 48 h
  Average CVE 48 h: 0.47
[2]; 10 μg/ml CDDP, 72 h
  Average CVE 72 h: 0.256
[2]; 100 μg/ml CDDP
  Average CVE 24 h: 0.223
[2]; 100 μg/ml CDDP, 48 h
  Average CVE 48 h: 0.189
[2]; 100 μg/ml CDDP, 72 h
  Average CVE 72 h: 0.172
[2]; 48 h
  ABSORBANCE: 0.801
[2]; 72 h
  ABSORBANCE: 1
[2]; Run 2, 24 h, 0.1 μg/ml CDDP
  CVE Average: 0.551
[2]; Run 2, 24 h, 1 μg/ml CDDP
  CVE Average: 0.232
[2]; Run 2, 24 h, 10 μg/ml CDDP
  CVE Average: 0.504
[2]; Run 2, 24 h, 100 μg/ml CDDP
  CVE Average: 0.266
[2]; Run 2, 48 h, 0.1 μg/ml CDDP
  CVE Average: 0.801
[2]; Run 2, 48 h, 1 μg/ml CDDP
  CVE Average: 0.311
[2]; Run 2, 48 h, 10 μg/ml CDDP
  CVE Average: 0.205
[2]; Run 2, 48 h, 100 μg/ml CDDP
  CVE Average: 0.287
[2]; Run 2, 72 h, 0.1 μg/ml CDDP
  CVE Average: 1
[2]; Run 2, 72 h, 1 μg/ml CDDP
  CVE Average: 0.337
[2]; Run 2, 72 h, 10 μg/ml CDDP
  CVE Average: 0.127
[2]; Run 2, 72 h, 100 μg/ml CDDP
  CVE Average: 0.268
[2]; Run 3, 24 h, 0.1 μg/ml CDDP
  CVE Average: 0.675
[2]; Run 3, 24 h, 1 μg/ml CDDP
  CVE Average: 0.194
[2]; Run 3, 24 h, 10 μg/ml CDDP
  CVE Average: 0.398
[2]; Run 3, 24 h, 100 μg/ml CDDP
  CVE Average: 0.224
[2]; Run 3, 48 h, 0.1 μg/ml CDDP
  CVE Average: 0.624
[2]; Run 3, 48 h, 1 μg/ml CDDP
  CVE Average: 0.815
[2]; Run 3, 48 h, 10 μg/ml CDDP
  CVE Average: 0.199
[2]; Run 3, 48 h, 100 μg/ml CDDP
  CVE Average: 0.185
[2]; Run 3, 72 h, 0.1 μg/ml CDDP
  CVE Average: 0.759
[2]; Run 3, 72 h, 1 μg/ml CDDP
  CVE Average: 0.295
[2]; Run 3, 72 h, 10 μg/ml CDDP
  CVE Average: 0.155
[2]; Run 3, 72 h, 100 μg/ml CDDP
  CVE Average: 0.393
[3]; 0.1 μg/ml CDDP
  CVE Average 24 h: 0.388
  CVE Average 48 h: 0.709
  CVE Average 72 h: 0.457
[3]; 1 μg/ml CDDP
  CVE Average 24 h: 0.363
  CVE Average 48 h: 0.517
  CVE Average 72 h: 0.263
[3]; 10 μg/ml CDDP
  CVE Average 24 h: 0.358
  CVE Average 48 h: 0.653
  CVE Average 72 h: 0.387
[3]; 100 μg/ml CDDP
  CVE Average 24 h: 0.282
  CVE Average 48 h: 0.341
  CVE Average 72 h: 0.389
[3]; Run 1, 24 h, 0.1 μg/ml CDDP
  CVE Average: 0.413
[3]; Run 1, 24 h, 1 μg/ml CDDP
  CVE Average: 0.431
[3]; Run 1, 24 h, 10 μg/ml CDDP
  CVE Average: 0.484
[3]; Run 1, 24 h, 100 μg/ml CDDP
  CVE Average: 0.307
[3]; Run 1, 48 h, 0.1 μg/ml CDDP
  CVE Average: 0.599
[3]; Run 1, 48 h, 1 μg/ml CDDP
  CVE Average: 0.643
[3]; Run 1, 48 h, 10 μg/ml CDDP
  CVE Average: 0.632
[3]; Run 1, 48 h, 100 μg/ml CDDP
  CVE Average: 0.379
[3]; Run 1, 72 h, 0.1 μg/ml CDDP
  CVE Average: 0.298
[3]; Run 1, 72 h, 1 μg/ml CDDP
  CVE Average: 0.23
[3]; Run 1, 72 h, 10 μg/ml CDDP
  CVE Average: 0.216
[3]; Run 1, 72 h, 100 μg/ml CDDP
  CVE Average: 0.244
[3]; Run 2, 24 h, 0.1 μg/ml CDDP
  CVE Average: 0.388
[3]; Run 2, 24 h, 1 μg/ml CDDP
  CVE Average: 0.363
[3]; Run 2, 24 h, 10 μg/ml CDDP
  CVE Average: 0.358
[3]; Run 2, 24 h, 100 μg/ml CDDP
  CVE Average: 0.282
[3]; Run 2, 48 h, 0.1 μg/ml CDDP
  CVE Average: 0.709
[3]; Run 2, 48 h, 1 μg/ml CDDP
  CVE Average: 0.517
[3]; Run 2, 48 h, 10 μg/ml CDDP
  CVE Average: 0.653
[3]; Run 2, 48 h, 100 μg/ml CDDP
  CVE Average: 0.341
[3]; Run 2, 72 h, 0.1 μg/ml CDDP
  CVE Average: 0.457
[3]; Run 2, 72 h, 1 μg/ml CDDP
  CVE Average: 0.263
[3]; Run 2, 72 h, 10 μg/ml CDDP
  CVE Average: 0.387
[3]; Run 2, 72 h, 100 μg/ml CDDP
  CVE Average: 0.389

Source: patent US20190343908A1, “Therapeutic Combination for the Treatment of Cancer” (Nerium Biotechnology Inc., priority 2011, published 2019)
